Experimental data published in patent US20170367996A1, “Use Of Xanthophyll Carotenoids To Improve Visual Performance And Neural Efficiency” (University of Georgia Research Foundation, Inc., priority 2011, published 2017).

Assays:
Type in all cases: in vivo, human
college baseball players [1] = assay: Macular pigment optical density (MPOD) by customized heterochromatic flicker photometry, zeaxanthin supplementation study; conditions: for MPOD (Example 2, preliminary data): 20 mg/d supplementation ongoing
Method: (§1) Subjects: Seven college baseball players (M=20.3±0.58 years), supplemented with 20 mg/Z/day for 3-months, participated in this study. The visual function parameters MPOD, disability glare, photostress recovery time, and contrast enhancement were determined. The neural efficiency parameters Fixed Reaction Time (FRT); Variable Reaction Time (VRT); and Coincidence Anticipation Timing (CAT) were determined.
• Customized HFP [3]—Macular Metrics Corp., Providence, R.I.,

college baseball players [2] = assay: Photostress recovery time (PR); conditions: 20 mg/Z/day for 3-months; supplemented subjects
Method: as §1
(§2) Stimuli presented in three-channel Maxwellian-view optical system (1 kW xenon-arc light source).
• 570 nm target (100% contrast; 5 cpd). • 5 second exposure to bleaching photostressor (5° diameter disk; xenon-white light of log 2.5 μW/cm2 intensity). • Threshold: time to recover visibility of target.

college baseball players [3] = assay: Glare disability (GL); conditions: 20 mg/Z/day for 3-months
Method: as §1, §2
(§3) • 570 nm target (100% contrast, 5 cycles per degree—cpd); 10° inner, 12° outer diameter annulus comprised of broad-band xenon light (see FIG. 1 a). • Threshold: intensity of annulus required to completely veil target.

college baseball players [4] = assay: Contrast enhancement (CE); conditions: 20 mg/Z/day for 3-months
Method: as §1, §2
(§4) • 600 nm target (100% contrast grating, 5 cpd); 460 nm surround (see FIG. 1A(b)). • Threshold: intensity of background required to obscure edge between target and surround.

college baseball players [5] = assay: Fixed and variable position reaction time (FRT/VRT); conditions: 20 mg/Z/day for 3-months
Method: as §1
• Task: button press in response to LED repeatedly presented at same position (FRT) or random location (VFT) along the 120 LED linear track. • 60 trials; inter-trial intervals varied between 1000-3000 ms

college baseball players [6] = assay: Coincidence anticipation timing (CAT); conditions: 20 mg/Z/day for 3-months; at the highest frequency
Method: as §1
• Task: button press to indicate when a light bar (traveling along 120 LED linear track) reached a specified point. • Velocity randomly varied between 5, 10, 15, and 20 MPH (15 trials for each speed, randomly presented; inter-trial intervals randomly varied between 1000-3000 ms).

college baseball players [7] = assay: Static and dynamic visual performance after zeaxanthin supplementation (Example 2); conditions: 20 mg/d supplementation ongoing; preliminary data
From the text: Baseball performance requires the ability to perceive and react to temporally varying stimuli under lighting conditions that are known to be most detrimental to visual function (i.e., short-wave light). Macular pigment (MP) lutein (L) and zeaxanthin (Z) in the retina—is known to improve performance under such conditions and may also improve neural efficiency. The purpose of this study was to assess static and dynamic visual performance in college baseball players in order to: • a) Define performance ability in athletes and non-athletes matched for age and MP (N=18); and, • b) Improve athletes' performance via supplementation.
as §2, §3, §4
• 570 nm target (100% contrast; 5 cpd). • 5 second exposure to bleaching photostressor (5° diameter disk; xenon-white light of log 2.5 μW/cm2 intensity). • Threshold: time to recover visibility of target. […]

SMILES: CC1=C(/C=C/C(C)=C/C=C/C(C)=C/C=C/C=C(C)/C=C/C=C(C)/C=C/C2=C(C)C[C@@H](O)CC2(C)C)C(C)(C)C[C@H](O)C1 [Zeaxanthin, zeaxanthin]
- MPOD in supplemented subjects (college baseball players [1]; 20 mg/Z/day for 3-months, three subjects completed): increased
- MPOD (Example 2, preliminary data) (college baseball players [1]): increases
- MPOD (Example 2, preliminary data) (college baseball players [1]; listed as zeaxanthin): Increases
- 12-week MPOD (college baseball players [1]; one subject, baseline MPOD 0.7 at 30-min of eccentricity, 20 mg/d, 12 weeks): 0.77
- Photostress recovery time (college baseball players [2]): decreased
- Glare (disability glare) (college baseball players [3]): Early improvements
- Contrast enhancement (college baseball players [4]): Early improvements
- FRT (college baseball players [5]): improved
- VRT (college baseball players [5]): improved
- CAT accuracy (college baseball players [6]): improved
- Dynamic visual performance (college baseball players [7]): improvement
- Static visual performance (college baseball players [7]): improvement
